The text below walks through data of US12685315B2, “Herbicidal combination” (UPL do Brasil Industria e Comercio de Insumos Agropecuarios …, priority 2019, dated 2026).

Each structure is given as a SMILES string.

Experiment [1] deals with yellow nutsedge. The experiment in a line: Field trial, post emergence, efficacy on yellow nutsedge (Blacksburg, VA). Format: in vivo, Cyperus esculentus. The settings on record: 2-way mixes 0.5X, 3-way mix 0.33X; for Yellow nut sedge at 29 DAT (Percentage weed cover): dosage: singles 1X; for Yellow nut sedge at 29 DAT (Percentage Control): post emergence, dosage: singles 1 X. As to the method:
A field trial was conducted to evaluate effectiveness of the combinations of three active ingredients according to the invention when used post emergence, at different rates, compared to industry standards—stand alone and 2 way mixture molecules for efficacy of yellow nutsedge. The active ingredient combination used in the trial was bentazon+halosulfuron+sulfentrazone. The trial was conducted in Blacksburg, VA and was initiated on June 6 under given protocol. The plots were in fallow area primarily covered with yellow nutsedge and tall fescue and were sprayed at 4 week intervals. (2 applications total). The application dosages of the herbicides, when used in isolation and when used in the combinations were as follows: […]

Experiment [2] concerns Brachiaria decumbens (BRADC). The experiment in a line: Field trial of triple mixes of amicarbazone, pre and post-emergence weed control. The class given is in vivo. How it is done:
(§1) Field trials were done to evaluate the efficacy and synergism of the triple mixes of amicarbazone with other herbicides for the control of weeds in pre and post-emergence application.
(§2) The composition of the present invention was applied. This test was performed for species of weeds: Grasses namely BRADC=Brachiaria decumbens, CCHEC=Cenchrus echinatus, ELEIN=Eleusine indica, TRCIN=Digitaria insularis and Broadleaves namely IAQGR=Ipomoea grandifolia, EPHHL=Euphorbia heterophylla, COMBE=Commelina benghalensis. Data were collected at various period after application of the composition to the soil and calculated.

For experiment [3], the system named is Ipomoea grandifolia (IAQGR). The experiment in a line: Field trial of triple mixes of amicarbazone, pre-emergence weed control. Format: in vivo. How it is done: as §1, §2
For experiment [4], the system named is Cenchrus echinatus (CCHEC). As to the kind of experiment: Field trial of triple mixes of amicarbazone, pre and post-emergence weed control. The class given is in vivo. How it is done: as §1, §2
Experiment [5] concerns Eleusine indica. Described as above. Format: in vivo. The settings on record: Table 8, dose g ai/ha: Amicarbazone 250, Sulfentrazone 150, Diuron 250, mix 250 + 150 + 250. How it is done: as §1, §2
Experiment [6] concerns Euphorbia heterophylla. As to the kind of experiment: Field trial of triple mixes of amicarbazone, pre-emergence weed control. The class given is in vivo. The settings on record: dose g ai/ha: Amicarbazone 250, Sulfentrazone 150, Diuron 250, mix 250 + 150 + 250. How it is done: as §1, §2
Experiment [7] relates to Digitaria insularis. As to the kind of experiment: Field trial of triple mixes of amicarbazone, post-emergence weed control. Format: in vivo. Particulars: dose g ai/ha: Amicarbazone 75, S-metolachlor 300, Atrazine 250, mix 75 + 300 + 250. How it is done: as §1, §2
[8] abbreviates: Table 5, Post-Emergence, 21 DAA, dose g ai/ha: Amicarbazone 250, Clomazone 250, Diuron 250, mix 250 + 250 + 250.
Setting [9] is: Table 5, Post-Emergence, 28 DAA, dose g ai/ha: Amicarbazone 250, Clomazone 250, Diuron 250, mix 250 + 250 + 250.
[10] abbreviates: Table 5, Post-Emergence, 35 DAA, dose g ai/ha: Amicarbazone 250, Clomazone 250, Diuron 250, mix 250 + 250 + 250.
The mark [11] stands for this setting: Table 5, Pre-Emergence, 21 DAA, dose g ai/ha: Amicarbazone 250, Clomazone 250, Diuron 250, mix 250 + 250 + 250.
Where [12] appears, read: Table 5, Pre-Emergence, 28 DAA, dose g ai/ha: Amicarbazone 250, Clomazone 250, Diuron 250, mix 250 + 250 + 250.
[13] abbreviates: Table 5, Pre-Emergence, 35 DAA, dose g ai/ha: Amicarbazone 250, Clomazone 250, Diuron 250, mix 250 + 250 + 250.
Setting [14] is: Table 4, 7 DAA, dose g ai/ha: Amicarbazone 250, Clomazone 250, Diuron 250, mix 250 + 250 + 250.
Setting [15] is: Table 4, 14 DAA, dose g ai/ha: Amicarbazone 250, Clomazone 250, Diuron 250, mix 250 + 250 + 250.
Setting [16] is: Table 4, 28 DAA, dose g ai/ha: Amicarbazone 250, Clomazone 250, Diuron 250, mix 250 + 250 + 250.
Setting [17] is: Table 6, Post-Emergence, 21 DAA, dose g ai/ha: Amicarbazone 250, Sulfentrazone 150, Diuron 250, mix 250 + 150 + 250.
The mark [18] stands for this setting: Table 6, Post-Emergence, 28 DAA, dose g ai/ha: Amicarbazone 250, Sulfentrazone 150, Diuron 250, mix 250 + 150 + 250.
The mark [19] stands for this setting: Table 6, Post-Emergence, 35 DAA, dose g ai/ha: Amicarbazone 250, Sulfentrazone 150, Diuron 250, mix 250 + 150 + 250.
The mark [20] stands for this setting: Table 6, Pre-Emergence, 21 DAA, dose g ai/ha: Amicarbazone 250, Sulfentrazone 150, Diuron 250, mix 250 + 150 + 250.
The mark [21] stands for this setting: Table 6, Pre-Emergence, 28 DAA, dose g ai/ha: Amicarbazone 250, Sulfentrazone 150, Diuron 250, mix 250 + 150 + 250.
[22] abbreviates: Table 6, Pre-Emergence, 35 DAA, dose g ai/ha: Amicarbazone 250, Sulfentrazone 150, Diuron 250, mix 250 + 150 + 250.

Consider `CC(C)N1C(=O)c2ccccc2NS1(=O)=O` [Bentazone], for which the “Yellow nut sedge at 29 DAT (Percentage weed cover)” value in experiment [1] (05/07, untreated 59) turned out to be 10%; in experiment [1] (13/06, untreated 50), 40%; in experiment [1] (20/6, untreated 49), 8%. The “Yellow nut sedge at 29 DAT (Percentage Control)” value in experiment [1] (05/07) is reported as 76%; in experiment [1] (13/06) it was 65%; in experiment [1] (20/6), 75%.

For the molecule `CC1(C)CON(Cc2ccccc2Cl)C1=O` [Clomazone], the “% Control” value in experiment [2] (setting [8]) is given as 71.3%; in experiment [2] (setting [9]), 63.8%; in experiment [2] (setting [10]), 61.3%; in experiment [2] (setting [11]) it was 89.5%; in experiment [2] (setting [12]) it was 86.5%; in experiment [2] (setting [13]) it was 86.3%. In addition, the “% Control” value in experiment [3] (setting [14]) came to 57.5%; in experiment [3] (setting [15]) it was 41.3%; in experiment [3] (setting [16]), 39.5%.

With `CN(C)C(=O)Nc1ccc(Cl)c(Cl)c1` [Diuron], the “% Control” value in experiment [4] (setting [17]) worked out at 38.8%; in experiment [4] (setting [18]) it was 35.0%; in experiment [4] (setting [19]), 28.8%; in experiment [4] (setting [20]) it was 0.0%; in experiment [4] (setting [21]), 0.0%; in experiment [4] (setting [22]), 0.0%. Also, the “% Control” value in experiment [2] (setting [8]) is reported as 81.3%; in experiment [2] (setting [9]), 75.0%; in experiment [2] (setting [10]) it was 76.3%; in experiment [2] (setting [11]), 0.0%; in experiment [2] (setting [12]), 0.0%; in experiment [2] (setting [13]) it was 0.0%. In addition, the “% Control” value in experiment [5] (Post-Emergence, 14 DAA) was 53.8%; in experiment [5] (Post-Emergence, 21 DAA) it was 35.0%; in experiment [5] (Post-Emergence, 28 DAA), 30.0%; in experiment [5] (Pre-Emergence, 14 DAA), 0.0%; in experiment [5] (Pre-Emergence, 21 DAA), 0.0%; in experiment [5] (Pre-Emergence, 28 DAA), 0.0%. The “% Control” value in experiment [3] (setting [14]) turned out to be 10.0%; in experiment [3] (setting [15]), 0.0%; in experiment [3] (setting [16]), 0.0%; in experiment [6] (Table 7, 7 DAA), 0.0%; in experiment [6] (Table 7, 14 DAA) it was 0.0%; in experiment [6] (Table 7, 21 DAA), 0.0%.

In the case of `COc1cc(OC)nc(NC(=O)NS(=O)(=O)c2c(C(=O)O)c(Cl)nn2C)n1` [Halosulfuron], the “Yellow nut sedge at 29 DAT (Percentage weed cover)” value in experiment [1] (05/07, untreated 59) is given as 8%; in experiment [1] (13/06, untreated 50) it was 50%; in experiment [1] (20/6, untreated 49), 16%. In addition, the “Yellow nut sedge at 29 DAT (Percentage Control)” value stood at 81% in experiment [1] (05/07), 36% in experiment [1] (13/06) and 60% in experiment [1] (20/6).

For `CS(=O)(=O)c1cc(C(F)(F)F)ccc1C(=O)c1cnoc1C1CC1` [Isoxaflutole], the “% Control” value in experiment [4] (Table 2, Post-Emergence, 7 DAA, dose g ai/ha: Amicarbazone 75, Isoxaflutole 15, Atrazine 250, mix 75 + 15 + 250) came to 68.8%; in experiment [4] (Table 2, Post-Emergence, 28 DAA, dose g ai/ha: Amicarbazone 75, Isoxaflutole 15, Atrazine 250, mix 75 + 15 + 250), 91.3%; in experiment [4] (Table 2, Post-Emergence, 35 DAA, dose g ai/ha: Amicarbazone 75, Isoxaflutole 15, Atrazine 250, mix 75 + 15 + 250) it was 93.3%; in experiment [2] (Table 1, Post-Emergence, 7 DAA, dose g ai/ha: Amicarbazone 75, Isoxaflutole 15, Atrazine 250, mix 75 + 15 + 250), 66.3%; in experiment [2] (Table 1, Post-Emergence, 21 DAA, dose g ai/ha: Amicarbazone 75, Isoxaflutole 15, Atrazine 250, mix 75 + 15 + 250), 65.0%; in experiment [2] (Table 1, Post-Emergence, 28 DAA, dose g ai/ha: Amicarbazone 75, Isoxaflutole 15, Atrazine 250, mix 75 + 15 + 250), 68.8%. Moreover, the “% Control” value in experiment [2] (Table 1, Pre-Emergence, 7 DAA, dose g ai/ha: Amicarbazone 75, Isoxaflutole 15, Atrazine 250, mix 75 + 15 + 250) was 86.3%; in experiment [2] (Table 1, Pre-Emergence, 21 DAA, dose g ai/ha: Amicarbazone 75, Isoxaflutole 15, Atrazine 250, mix 75 + 15 + 250), 53.8%; in experiment [2] (Table 1, Pre-Emergence, 28 DAA, dose g ai/ha: Amicarbazone 75, Isoxaflutole 15, Atrazine 250, mix 75 + 15 + 250), 50.0%; in experiment [3] (Table 3, 14 DAA, dose g ai/ha: Amicarbazone 75, Isoxaflutole 15, Atrazine 250, mix 75 + 15 + 250), 15.0%; in experiment [3] (Table 3, 21 DAA, dose g ai/ha: Amicarbazone 75, Isoxaflutole 15, Atrazine 250, mix 75 + 15 + 250) it was 0.0%; in experiment [3] (Table 3, 28 DAA, dose g ai/ha: Amicarbazone 75, Isoxaflutole 15, Atrazine 250, mix 75 + 15 + 250), 0.0%.

Turning to `CCc1cccc(C)c1N(C(=O)CCl)[C@@H](C)COC` [S-metolachlor], the “% Control” value in experiment [7] (Table 9, 21 DAA) was 0.0%; in experiment [7] (Table 9, 28 DAA) it was 0.0%; in experiment [7] (Table 9, 35 DAA), 0.0%.

Take `Cc1nn(-c2cc(NS(C)(=O)=O)c(Cl)cc2Cl)c(=O)n1C(F)F` [Sulfentrazone]: the “% Control” value is 86.3% in experiment [4] (setting [17]); 83.8% in experiment [4] (setting [18]); 82.5% in experiment [4] (setting [19]); 17.5% in experiment [4] (setting [20]); 13.8% in experiment [4] (setting [21]); 9.5% in experiment [4] (setting [22]). The “% Control” value amounted to 70.0% in experiment [5] (Post-Emergence, 14 DAA); 63.8% in experiment [5] (Post-Emergence, 21 DAA); 55.0% in experiment [5] (Post-Emergence, 28 DAA); 93.3% in experiment [5] (Pre-Emergence, 14 DAA); 96.5% in experiment [5] (Pre-Emergence, 21 DAA); 92.0% in experiment [5] (Pre-Emergence, 28 DAA). The “% Control” value in experiment [6] (Table 7, 7 DAA) amounted to 0.0%; in experiment [6] (Table 7, 14 DAA), 10.0%; in experiment [6] (Table 7, 21 DAA) it was 17.5%. Besides, the “Yellow nut sedge at 29 DAT (Percentage weed cover)” value in experiment [1] (05/07, untreated 59) came out at 9%; in experiment [1] (13/06, untreated 50), 44%; in experiment [1] (20/6, untreated 49), 11%. For the same molecule, the “Yellow nut sedge at 29 DAT (Percentage Control)” value was found to be 75% in experiment [1] (05/07), 58% in experiment [1] (13/06) and 73% in experiment [1] (20/6).
